Consider two compounds from patent US12497364B2, “Compound for the determination of the protein FKBP12 and a sensor unit comprising it” (UNIVERSITA DEGLI STUDI DI FIRENZE, priority 2019, dated 2025).

For assay [1], the target named is T1, FKBP12 (Homo sapiens, UniProt P62942).
T1 construct: purchased Interuniversity Magnetic Resonance Consortium of Paramagnetic Metalloproteins, CIRMMP (Florence, Italy); host or cells: Escherichia coli
Briefly: QCM microgravimetric measurement of FKBP12 bound to the self-assembled monolayer (SAM), Langmuir fit. The assay is classed as binding. As to conditions: for Binding of FKBP12 in solution to the SAM (FIG. 5): mass of FKBP12 bound versus FKBP12 concentration in solution. As to the method: FKBP12 expressed in Escherichia coli, molecular weight 11900, purity >95% was supplied by the Interuniversity Magnetic Resonance Consortium of Paramagnetic Metalloproteins, CIRMMP (Florence, Italy). The purity of FKBP12 was determined by SDS electrophoresis. K2HPO4 and KH2PO4 for the preparation of the phosphate buffer was obtained from Sigma-Aldrich (Italy). All measurements were made using ultrapure water (resistivity=18 MΩ cm, pH=5.6 at 20° C.) obtained with a Milli-RO equipment coupled with a Milli-Q set up (Millipore, Italy).
(§1) The concentration of the stock solutions of FKBP12 in PBS buffer (pH 7.4, 0.15 M NaCl) was checked by UV/Vis measurements using ε280=9970 M^−1 cm^−1. The stock solution of FKBP12 was diluted to reach the concentrations used for the calibration straight line.
(§2) The microgravimetric analyses were carried out with a Quartz-Crystal microbalance (QCM-Z 500 from KSV-Finland). This instrumentation is equipped with a Peltier element for controlling the temperature inside the measurement chamber. All experiments were performed at a temperature of T=20.0±0.1° C.
The frequency and dissipation data for all recorded harmonics were processed with the QCMBrowse software which directly provides adsorbed mass in nanograms/cm^2, thickness of the monolayer in nanometers and viscoelastic parameters of the system.
The gold-coated piezoelectric quartz support covered with the SAMs as described above in Example 2, was brought into contact with solutions of increasing concentration of the FKBP12 protein and the concentration of the protein bound to the self-assembled monolayer SAM at saturation was recorded with gravimetric measurements.
Two different miniaturized versions of an open chamber QCM quartz crystal microbalance (from QCM KSV, Finland and an OpenQCM, Italy modified by the inventors) were also used as a device, allowing the use of small measurement volumes (less than 100 microliters) of the solution to analyse.
Again with reference to FIG. 5, it can be observed that in all the examined cases there is a saturation trend of the curves, which flatten once the sites available for binding the FKBP protein are exhausted. Considering the structure reached at this concentration as the final equilibrium structure, the relative structural parameters reported in the following Table 2 were calculated.
The trend shown in FIG. 5 can be rationalized through the Langmuir binding and/or adsorption equation: Δm/A=(Δm/A)sat[C]/[C]+kd
The application of this model to the data obtained from the microgravimetric measurements allowed to obtain a detailed picture of the interaction mechanism and the energetics involved, in particular we obtained the maximum surface density of FKBP12 (to saturation), the dissociation constant Kd for FKBP12/receptor in the nanosensor and free energy of physi-sorption. The values obtained are shown in Table 3 below, for all the types of SAMs examined.

Assay [2] deals with T1, FKBP12. The experiment in a line: Calibration straight line for FKBP12 on the SAM nanosensor (QCM). As to the method: as §1, §2
From the analysis of the calibration straight lines obtained for the systems examined, the linearity intervals and the experimental limit of detection (LOD) were obtained (wherein LOD means the smallest amount of measurable analyte with acceptable accuracy and precision) for each sensor tested, considering that the maximum sensitivity to the mass in the cell for liquids of the instrumentation used is 0.5 ng/cm^2. This limit may vary depending on the analytical instrumentation adopted for the same SAM used.

For assay [3], the target named is T1, FKBP12. Briefly: Duration of operation of the SAM and its reconditioning (QCM). To be noted: reconditioning with imidazole or with ethanol. As to the method: The microgravimetric measurements described above were repeated on freshly prepared SAMs or aged up to 4 months, finding the same results, at least for SAMs stored in closed containers saturated with N2.
Measurements were also carried out on SAMs already used for a measurement, after reconditioning with imidazole or with ethanol. […] The same result was achieved by leaving in incubation the SAM in solution of the reconditioning solvent.

T1 sequence (P62942 whole entry): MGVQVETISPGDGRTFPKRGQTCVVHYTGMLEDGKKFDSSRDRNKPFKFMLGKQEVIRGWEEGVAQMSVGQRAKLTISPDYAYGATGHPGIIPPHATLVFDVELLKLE

Consider `O=C(CCCCCCCCCCS)Oc1ccc(C(=O)C(=O)N2CCCC[C@H]2C(=O)NCCCc2ccccc2)cc1` [GPS-SH1, (S)-4-(2-oxo-2-(2-((3-phenylpropyl)carbamoyl)piperidin-1-yl)acetyl)phenyl 11-mercaptoundecanoate], for which the “(M/Area)max (Langmuir FIT), maximum surface density of FKBP12 at saturation” value in assay [1] (Table 2, SAM on gold-coated quartz crystal) was determined as 123 ng/cm^2. Further, in assay [1] (Table 2, SAM on gold-coated quartz crystal, T=20.0 °C, pseudo-Kd for mixed systems), the Kd (in general, the constant that tells how readily two partners part at equilibrium) was found to be 0.75 nM. Besides, the “(Maa/Area)max (Langmuir FIT)” value in assay [1] (Table 3) was 123 ng/cm^2. Also, the “Area available for FKBP12 to saturation” value in assay [1] (Table 3, experimental data, at saturation) was found to be 1910 Å^2. Also, in assay [1], the “Binding of FKBP12 in solution to the SAM (FIG. 5)” value is recorded as “binds”. Also, in assay [2] (FKBP12 concentration in solution, QCM mass sensitivity 0.5 ng/cm^2), the “Linear interval of the response to FKBP12” value fell in the range of 10 to 800 pM. Moreover, in assay [2] (LOD = 3x (y-intercept standard deviation)/slope of the calibration curve), the “Limit of Detection (LOD)” value is 8.0 pM. The “QCM frequency before addition of FKBP12 versus after rinsing with the reconditioning solvent” value in assay [3] is “identical”.

For the compound `CCCCCCCCCCCCS` [C12SH, reference compound], the “Binding of FKBP12 in solution to the SAM (FIG. 5)” value in assay [1] is recorded as “no interaction with the FKBP protein in solution is observed”.
